From ChEMBL document CHEMBL1159245, “Antineoplastic agents, 326. The stereochemistry of bastadins 8, 10, and 12 from the Bismarck archipelago marine sponge Ianthella basta” (J Nat Prod, 1995)
≈ marks a conversion by molar mass, not a printed value. Calls of active or inactive are those of the source. The calls are words filed in the database; no cut-off is given here.

Tests used:
Escherichia coli = test: Antibacterial activity against Escherichia coli ATCC 25922 at […] after 16 hrs; assay type: functional, organism-based
Enterococcus faecalis = test: Antibacterial activity against Enterococcus faecalis ATCC 29212 assessed per 6 mm disk after 16 hrs; assay type: functional
NCI-H460 = test: Growth inhibition of human NCI-H460 cells; assay type: functional; details: read-out: ED50 (the source's name)
Staphylococcus aureus = test: Antibacterial activity against Staphylococcus aureus ATCC 29213 assessed per 6 mm disk after 16 hrs; assay type: functional
OVCAR-3 = test: Growth inhibition of human OVCAR-3 cells; assay type: functional; details: read-out: ED50 (the source's name)
[1] = Growth inhibition of human SF295 cells; assay type: cell-based, SF-295; details: read-out: ED50 (the source's name)
KM-20L2 = test: Growth inhibition of human KM20L2 cells; assay type: functional; details: read-out: ED50 (the source's name)
Candida albicans = test: Antifungal activity against Candida albicans ATCC 90028 at […] after 42 hrs; assay type: functional, organism-based
Neisseria gonorrhoeae = test: Antibacterial activity against Neisseria gonorrhoeae ATCC 49226 at […] after 16 hrs; assay type: functional, organism-based
P388 = test: Growth inhibition of mouse P388 cells; assay type: functional; details: read-out: ED50 (the source's name)
SK-MEL-5 = test: Growth inhibition of human SK-MEL-5 cells; assay type: functional; details: read-out: ED50 (the source's name)
Cryptococcus neoformans = test: Antifungal activity against Cryptococcus neoformans ATCC 90112 at […] after 42 hrs; assay type: functional, organism-based
A498 = test: Growth inhibition of human A498 cells; assay type: functional; details: read-out: ED50 (the source's name)
Bacillus subtilis = test: Antibacterial activity against Bacillus subtilis; assay type: functional

MIC (Enterococcus faecalis) [µg] | EC50 (NCI-H460) [µg/mL] | MIC (Staphylococcus aureus) [µg] | EC50 (OVCAR-3) [µg/mL] | EC50 (P388) [µg/mL] | EC50 (SK-MEL-5) [µg/mL] | MIC (Bacillus subtilis) [µg/mL] | Compound | Activity (Escherichia coli) | GI50 [1] [µg/mL] | EC50 (KM-20L2) [µg/mL] | Activity (Candida albicans) | Activity (Neisseria gonorrhoeae) | Activity (Cryptococcus neoformans) | EC50 (A498) [µg/mL]
50 | 2.3 (≈ 2.22 µM) | 6.25 | 2 (≈ 1.93 µM) | 9.1 (≈ 8.79 µM) | 2.2 (≈ 2.13 µM) |  | O=C1NCCc2cc(Br)c(O)c(c2)Oc2c(Br)cc(cc2Br)[C@H](O)CNC(=O)/C(=N/O)Cc2cc(Br)c(O)c(c2)Oc2ccc(cc2Br)C/C1=N\O [BASTADIN 12] | inactive | 2.4 (≈ 2.32 µM) | 2.1 (≈ 2.03 µM) | inactive | inactive | inactive | 2.1 (≈ 2.03 µM)
 |  |  |  |  |  | 6 (≈ 6.38 µM) | O=C1NCCc2ccc(c(Br)c2)Oc2cc(ccc2O)CCNC(=O)/C(=N/O)Cc2cc(Br)c(O)c(c2)Oc2c(Br)cc(cc2Br)C/C1=N\O [BASTADIN 13] |  |  |  |  |  |  | 
<50 | > 10 | 0.195 | > 10 | 22.6 (≈ 21.8 µM) | 9.9 (≈ 9.56 µM) |  | O=C1NCCc2cc(Br)c(O)c(c2)Oc2ccc(cc2Br)[C@H](O)CNC(=O)/C(=N/O)Cc2cc(Br)c(O)c(c2)Oc2c(Br)cc(cc2Br)C/C1=N\O [BASTADIN 8] | inactive | > 10 | > 10 | inactive | inactive | inactive | 7 (≈ 6.76 µM)

Compound | MIC (Enterococcus faecalis) [µg] | EC50 (NCI-H460) [µg/mL] | MIC (Staphylococcus aureus) [µg] | EC50 (OVCAR-3) [µg/mL] | EC50 (P388) [µg/mL] | EC50 (SK-MEL-5) [µg/mL] | MIC (Bacillus subtilis) [µg/mL] | Activity (Escherichia coli) | GI50 [1] [µg/mL] | EC50 (KM-20L2) [µg/mL] | Activity (Candida albicans) | Activity (Neisseria gonorrhoeae) | Activity (Cryptococcus neoformans) | EC50 (A498) [µg/mL]
O=C1NCCc2cc(Br)c(O)c(c2)Oc2ccc(cc2Br)[C@H](O)CNC(=O)/C(=N/O)Cc2cc(Br)c(O)c(c2)Oc2ccc(cc2Br)C/C1=N\O [BASTADIN 10] | 6.25 | 3.4 (≈ 3.56 µM) | 1.56 | 2.9 (≈ 3.03 µM) | > 10 | 3.7 (≈ 3.87 µM) |  | inactive | 3.2 (≈ 3.35 µM) | 2 (≈ 2.09 µM) | inactive | inactive | inactive | 4.5 (≈ 4.71 µM)
